We go through 33 molecules from US10392357B2, “Glucagon-like peptide 1 modulator and uses thereof” (Academia Sinica, priority 2015, dated 2019).

Where only a bound is given, the exact number is not on record here.

Format in all cases: cell-based
The target of data set [1] is T1, GLP-1R (UniProt P01275+P32301).
T1 construct: endogenous in cells; host or cells: RINm5F cells stably expressing the RG-cAMP BRET sensor
As to the kind of experiment: cell-based. Also noted: Activity % of compound 1 (potentiation of GLP-1 induced cAMP production): concentration or dose not given beside the values. The note with it: for Activity % of compound 1 (potentiation of GLP-1 induced cAMP production): relative to compound 1 = 100; for effect on GLP-1R signaling (GLP-1 induced cAMP production): FIG. 1A to 1E. On the procedure: Next day, cells were washed twice with 0.1 ml phenol red-free MEM containing 5 mM HEPES, and incubated in the same medium for 1 h. The medium was replaced with 90 μL the same medium containing 1 mg/ml BSA and 5 μM DeepBlueC. The whole plate was immediately loaded onto a SpectraMax Paradigm Detection Platform equipped with a Dual-Color luminescence detection cartridge and SoftMax Pro 6.2.2 (Molecular Devices, Sunnyvale, Calif.) to obtain the background BRET signal based on the sequential integration of the luminescence detected at 370-450 and 500-530 nm over 60-150 s. Each well was then stimulated by adding 10 μl of 10× solutions of peptide and lipids and 1 mg/ml BSA in phenol red-free MEM containing 5 mM HEPES, and BRET signals were obtained immediately under identical settings. The BRET ratio is the ratio of light emitted between 90 and 300 s at 500-530 nm to that emitted at 370-450 nm. […] The dose-response curve, maximal response, and concentration of peptide needed to yield half-maximal response (EC50) were obtained by nonlinear regression to fit the data to the agonist versus response equation using Prism software 5.0 (GraphPad, San Diego). Unless specified, all cAMP response data are the means±S.E. from three independent experiments with triplicate assays.
(cAMP levels reflect the balance of adenylyl cyclase and phosphodiesterase activity.)

For data set [2], the system named is H460 cells. As to the kind of experiment: Cell viability test (PrestoBlue) in H460 cells. The note with it: 72-h treatment, FIG. 5; for cytotoxicity: test concentration 0.78 to 100 μM. On the procedure: Cytotoxicity of H460 cells to various compounds was assessed using PrestoBlue® reagent, which was modified by the reducing environment of the viable cell and turns from blue to red in color. In brief, 3,000 H460 cells were seeded with 0.1 ml of RPMI 1640 medium in each well of a 96-well plate and incubated at 37° C. for 24 h before compound treatment. After a 72-h compound treatment, PrestoBlue™ cell viability reagent (Invitrogen) was added to each well according to the manufacturer's protocol. The plates were further incubated in the dark at 37° C. in 5% CO2 for 10 min, and absorbance of all wells was read at both the 570- and 600-nm wavelengths using automatic enzyme-linked immunosorbent assay plate reader (Molecular Devices, Union City, Calif.). The raw data were normalized and corrected according to the manufacturer's protocol. All samples were tested in triplicate, and each test was repeated three times. Cell viability was calculated using the following formula: percent of 100×(average corrected values of compound treated cells)/(average corrected values of untreated cells).

The target of data set [3] is T2, GLP-1R-V2R chimeric (Homo sapiens, UniProt P01275+P43220).
T2 construct: the first 440 amino acids of the GLP-1R (Met-1 to Thr-440); vasopressin V2 receptor C-terminal tail, last 29 amino acids, Ala-343 to Ser-371 (AVPR2); expressed in transfected cells; host or cells: U2OS osteosarcoma cells stably expressing beta-arrestin2:GFP (Norak Biosciences), transfected with pcDNA3-GLP-1R-V2R
As to the kind of experiment: Receptor endocytosis assay in U2OS cells co-expressing GLP-1R-V2R and β-arrestin2:GFP.
Excerpt: U2OS osteosarcoma cell line stably expressing a β-arrestin2:GFP fusion protein was obtained from Norak Biosciences. The pcDNA3 GLP-1R-V2R chimeric construct contains the first 440 amino acids of the GLP-1R (Met-1 to Thr-440) fused to the last 29 amino acids of the vasopressin V2 receptor (Ala-343 to Ser-371) and separated by two alanine residues as linker. […]
Images were acquired on an XL model of the ImageXpress® Micro System (Molecular Devices, Sunnyvale, Calif.) and analyzed with MetaXpress High-Content Image Acquisition and Analysis Software (Molecular Devices, Sunnyvale, Calif.) using the granularity and variable grain analysis modules. […] The number of spots, total area covered by spots, average and integrated fluorescence intensity of the spots, and nuclear area and fluorescence intensity were logged into the database. Data from abnormal cells for which the values were above threshold (abnormal: average nuclear staining intensity <500; integrated fluorescence intensity of area covered by spots <150) were ruled out using Acuity Xpress, followed by selection of the measurement method, spot fluorescence integrated intensity to calculate the average number of spots per nucleus. […]

Data set [4] relates to RINm5F cells. As to the kind of experiment: GLP-1-elicited insulin release from RINm5F cells. The note with it: FIG. 4.

A word on the EC50: it is the concentration that produces a half-maximal response. The IC50 is the concentration at which inhibition is half-maximal.

T1 sequence (P32301 22-463): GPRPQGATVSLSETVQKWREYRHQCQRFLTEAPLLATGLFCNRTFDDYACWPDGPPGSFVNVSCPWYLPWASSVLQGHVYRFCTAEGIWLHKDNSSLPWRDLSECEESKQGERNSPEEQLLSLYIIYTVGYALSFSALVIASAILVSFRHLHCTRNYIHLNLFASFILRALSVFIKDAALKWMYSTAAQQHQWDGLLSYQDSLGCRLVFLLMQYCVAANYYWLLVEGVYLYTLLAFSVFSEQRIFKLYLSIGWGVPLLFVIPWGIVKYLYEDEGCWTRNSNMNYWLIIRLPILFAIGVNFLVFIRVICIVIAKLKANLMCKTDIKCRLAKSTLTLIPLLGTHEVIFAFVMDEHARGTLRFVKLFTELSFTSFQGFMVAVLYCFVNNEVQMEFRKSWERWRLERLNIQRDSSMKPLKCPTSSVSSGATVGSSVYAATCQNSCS
T1 sequence (P01275 98-127 limits assumed): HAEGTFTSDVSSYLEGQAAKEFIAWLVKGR
T2 sequence (P43220 with tags, fused parts or gaps limits assumed): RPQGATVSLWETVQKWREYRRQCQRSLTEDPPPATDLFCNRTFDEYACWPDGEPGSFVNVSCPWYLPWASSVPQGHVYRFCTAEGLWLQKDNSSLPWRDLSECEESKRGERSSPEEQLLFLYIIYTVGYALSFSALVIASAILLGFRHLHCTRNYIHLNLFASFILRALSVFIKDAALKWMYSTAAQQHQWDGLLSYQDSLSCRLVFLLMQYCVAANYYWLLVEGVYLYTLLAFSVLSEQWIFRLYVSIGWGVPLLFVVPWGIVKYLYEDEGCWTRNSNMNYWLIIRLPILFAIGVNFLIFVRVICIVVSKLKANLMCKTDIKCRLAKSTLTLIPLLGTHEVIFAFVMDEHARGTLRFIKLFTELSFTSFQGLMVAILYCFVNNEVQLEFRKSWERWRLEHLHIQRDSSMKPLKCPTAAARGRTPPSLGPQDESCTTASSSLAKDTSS
T2 sequence (P01275 98-127 limits assumed, stated change not applied): as the sequence (P01275 98-127 limits assumed) above

On to `CCCCC/C=C/C/C=C/CCCCCCCC(=O)OCC(O)CO` (stereo not shown) [1-monolinolein], for which, in data set [1], the “Activity % of compound 1 (potentiation of GLP-1 induced cAMP production)” value (shortened to “Activity %”) is recorded as 80%.
As to `CCCCCCCC/C=C\CCCCCCCC(=O)OC(CO)CO` [2-oleoylglycerol], in data set [2], the cytotoxicity result is “did not exhibit detectable cytotoxicity”.
Regarding `C[C@@H]([C@H](C)O)[C@H](N)C(=O)O` [4-hydroxyisoleucine], the “Activity %” value in data set [1] is below 10%.
Turning to `CCCCCC/C=C/C=C/CCCCCCCC(=O)O` [9(E),11(E)-conjugated linoleic acid], the “Activity %” value in data set [1] turned out to be 30%.
Turning to `CCCCCC/C=C/C=C\CCCCCCCC(=O)O` [9(Z),11(E)-conjugated linoleic acid], the “Activity %” value in data set [1] is given as 25%.
Same read-out and setting: next, `CCCCC/C=C\C=C\CCCCCCCCC(=O)O` [10(E),12(Z)-conjugated linoleic acid]: 30%; `CCCCCC/C=C/CCCCCCCCCC(=O)O` [11-trans-octadecenoic acid]: 10%.
Turning to `CCCCC/C=C\C/C=C\CCCCCCCC(=O)NC1C(=O)OC(C)C1C` (stereo not shown) [Compound 1, (9Z,12Z)-N-(4,5-Dimethyl-2-oxotetrahydrofuran-3-yl)octadeca-9,12-dienamide], in data set [1] (RINm5F cells), the “relative potency among the compounds of formula (I) tested in example 2” value was “most potency” and the “effect on GLP-1R signaling (GLP-1 induced cAMP production)” value is reported as “enhance the GLP-1R signaling”. The “shift of the GLP-1 dose-response curve (cAMP production) to the left” value in data set [1] (compound 1 increased from 0.8 μM to 26 μM, FIG. 2 panel A) is reported as above 10 fold. The EC50 in data set [1] (dose dependent and saturable, FIG. 2 panel B) was 3.7 µM. In addition, the “Activity %” value in data set [1] is listed as 100%. The midpoint of the response in data set [3], the EC50, lay at 0.87 µM. In addition, the “effect on insulin release elicited by GLP-1” value in data set [4] (7.7 μM compound added to 2 nM GLP-1) is “significantly enhanced”. In addition, in data set [4] (compound alone, without GLP-1), the “insulin release by compound alone” value is “did not trigger any insulin release”. In addition, the cytotoxicity entry in data set [2] is reported as “did not exhibit detectable cytotoxicity”.
As for `CCC=CCC=CCC=CCC=CCC=CCC=CCCC(=O)N[C@H]1C(=O)O[C@@H](C)[C@@H]1C` [Compound 12], the “effect on GLP-1R signaling (GLP-1 induced cAMP production)” value in data set [1] (RINm5F cells) was “enhance the GLP-1R signaling”.
On to `CC/C=C\C/C=C\C/C=C\C/C=C\C/C=C\C/C=C\CCC(=O)O` [Docosahexaenoic acid], for which the “Activity %” value in data set [1] was determined as 60%.
On to `CC/C=C\C/C=C\C/C=C\C/C=C\C/C=C\C/C=C\CCC(=O)NCCO` [Docosahexaenoyl ethanolamide], for which the “Activity %” value in data set [1] is 20%.
The same measure, in the same setting: with `CC/C=C/C/C=C/C/C=C/C/C=C/C/C=C/C/C=C/CCC(=O)NCC(=O)O` [Docosahexaenoyl glycine] the figure was 15%.
Same read-out and setting: next, `CC/C=C\C/C=C\C/C=C\C/C=C\C/C=C\C/C=C\CCC(=O)NCCc1c[nH]c2ccc(O)cc12` [Docosahexaenoyl serotonin]: 15%; `CC/C=C\C/C=C\C/C=C\C/C=C\C/C=C\CCCC(=O)O` [Eicosapentaenoic acid]: 60%.
Turning to `CC/C=C\C/C=C\C/C=C\C/C=C\C/C=C\CCCC(=O)NCCO` [Eicosapentaenoyl ethanolamide], the “Activity %” value in data set [1] was 90%; in data set [1] (listed as eicosanpentaenoyl ethanolamide), “about 90%”.
For `CC/C=C\C/C=C\C/C=C\C/C=C\C/C=C\CCCC(=O)NCCc1c[nH]c2ccc(O)cc12` [Eicosapentaenoyl serotonin], the “Activity %” value in data set [1] was 20%.
The same measure, in the same setting: with `CCCCC/C=C\C/C=C\CCCCCCCC(=O)OCC` [Ethyl linoleate] the figure was 60%.
Same read-out and setting: with `CCCCC/C=C/C/C=C/CCCCCCCC(=O)O` [Linoelaidic acid] the figure was 30%.
In the case of `CCCCC/C=C\C/C=C\CCCCCCCC(=O)NCCO` [Linoleoyl ethanolamide], the “Activity %” value was 90% in data set [1] and “about 90%” in data set [1] (listed as linoleoyl ethanolamide).
For the molecule `CCCCC/C=C\C/C=C\CCCCCCCC(=O)NCC(=O)O` [Linoleoyl glycine], in data set [1], the “Activity %” value is 80%.
The same measure, in the same setting: with `CCCCC/C=C\C/C=C\CCCCCCCC(=O)OC` [Methyl cis,cis-9,12-octadecadienoate] the figure was 15%; with `CCCCC/C=C/C/C=C/CCCCCCCC(=O)OC` [Methyl linolelaidate], 30%; with `CCCCC/C=C\C/C=C\C/C=C\CCCCC(=O)OC` [Methyl γ-linolenate], 20%.
On the same count and under the same terms, with `CC/C=C\C/C=C\C/C=C\CCCCCCCC(=O)N[C@@H](Cc1ccc(O)cc1)C(=O)O` [N-(α-linolenoyl) tyrosine] the figure was 70%.
On the same count and under the same terms, next, `CCCCCCCC/C=C\CCCCCCCC(=O)O` [Oleic acid]: 35%.
`N.N.[Cl][Pt][Cl]` [cisplatin] displayed an IC50 in data set [2] of 6.7 µM.
As for `CCCCC/C=C\C/C=C\CCCCCCCC(=O)OC` [linoleic acid methyl ester], in data set [1], the “Activity %” value came out at 30%.
Same read-out and setting: with `CC/C=C\C/C=C\C/C=C\CCCCCCCC(=O)OC` [linolenic acid methyl ester] the figure was 15%.
`CCCCCCCC/C=C\CCCCCCCC(=O)NCCO` [oleoylethanolamide]: the cytotoxicity result in data set [2] was “did not exhibit detectable cytotoxicity”.
Take `CC/C=C\C/C=C\C/C=C\CCCCCCCC(=O)O` [α-linolenic acid]: the “Activity %” value in data set [1] is listed as 15%.
Consider `CCCCC/C=C\C/C=C\C/C=C\CCCCC(=O)OC` [γ-linoleic acid methyl ester], for which the “Activity %” value in data set [1] was 25%.
Still for that read-out and setting: with Cis-octadecenoic acid the figure was 25%.
As for GLP-1(7-36)-amide, the “insulin release from RINm5F cells” value in data set [4] (2 nM GLP-1 alone) is listed as “stimulated a low level of insulin release”.
